In patent publication US20140296065A1, “USE OF 5-FLUOROCYTOSINE AS A FUNGICIDE” (DOW AGROSCIENCES LLC, priority 2008, published 2014):
Read-outs that look alike come from different tables or passages of the source.

How the values were obtained:
Type in all cases: in vivo
[1] = test system: Mycosphaerella graminicola; anamorph: Septoria tritici; Bayer code SEPTTR; assay: Leaf Blotch of Wheat fungicidal activity; conditions: for pest or weed control at 100 ppm: Zymoseptoria tritici
Procedure: (§1) For the following examples, 5-fluorocytosine or a 5-fluorocytosine derivative was either dissolved in acetone or water, and dilutions were performed to obtain desirable rates. The spray solutions contained either 0.01% triton X-100 or 0.1% Trycol 5941. For high-volume spray, plants were sprayed to run-off using an automated booth sprayer. For a low-volume test, fungicide was applied using a track sprayer with application volume of 200 liters/hectare (L/H).
(§2) Plants were inoculated with fungal pathogens either 3 days before compound application (3-day curative test; 3DC) or 1 day after compound application (1-day protectant test; 1DP).
• 1. Evaluation of Fungicidal Activity: Leaf Blotch of Wheat (Mycosphaerella graminicola; anamorph: Septoria tritici; Bayer code SEPTTR):
Wheat plants (variety Yuma) were grown from seed in a greenhouse in 50% mineral soil/50% soil-less Metro mix until the first leaf was fully emerged, with 7-10 seedlings per pot. These plants were inoculated with an aqueous spore suspension of Septoria tritici either prior to or after fungicide treatments. After inoculation the plants were kept in 100% relative humidity (one day in a dark dew chamber followed by two to three days in a lighted dew chamber) to permit spores to germinate and infect the leaf. The plants were then transferred to a greenhouse for disease to develop. • 2. Evaluation of Fungicidal Activity: Glume Blotch of Wheat (Leptosphaeria nodorum; Bayer code LEPTNO; anamorph: Stagonospora nodorum):
(§3) The following tables present the activity of 5-fluorocytosine (Table I) or a 5-fluorocytosine derivative (Table II) when evaluated in these experiments. The effectiveness of 5-fluorocytosine or 5-fluorocytosine derivative in controlling disease was determined by assessing the severity of disease on treated plants, then converting the severity to percent control based on the level of disease on untreated, inoculated plants. • In each case of Tables I and II the rating scale is as follows: […]

[2] = test system: Glomerella lagenarium; anamorph: Colletotrichum lagenarium; Bayer code COLLLA; assay: Cucumber Anthracnose fungicidal activity; conditions: 200 ppm, 1DP (1-day protectant)
[3] = test system: Mycosphaerella fijiensis; BAYER code MYCOFI; assay: Black Sigatoka Disease of Banana fungicidal activity
Procedure: as §1
Plants were inoculated with fungal pathogens either 3 days before compound application (3-day curative test; 3DC) or 1 day after compound application (1-day protectant test; 1DP). […]
Efficacy against Mycosphaerella fijiensis was tested using newly emerged leaves of field grown banana plants. […] The leaves were subsequently allowed to become infected by natural inoculum, and were visually assessed for percent disease control ˜40-45 days later.
as §3

[4] = test system: Venturia inaequalis; Bayer code VENTIN; assay: Apple Scab fungicidal activity; conditions: 75 ppm
[5] = test system: Cochliobolus sativum; Bayer code COCHSA; anamorph: Helminthosporium sativum; assay: Spot Blotch of Barley fungicidal activity; conditions: 200 ppm, 1DP (1-day protectant)
Procedure: For the following examples, 5-fluorocytosine or a 5-fluorocytosine derivative was either dissolved in acetone or water, and dilutions were performed to obtain desirable rates. The spray solutions contained either 0.01% triton X-100 or 0.1% Trycol 5941. For high-volume spray, plants were sprayed to run-off using an automated booth sprayer. For a low-volume test, fungicide was applied using a track sprayer with application volume of 200 liters/hectare (L/H). Plants were inoculated with fungal pathogens either 3 days before compound application (3-day curative test; 3DC) or 1 day after compound application (1-day protectant test; 1DP). […] Evaluation of Fungicidal Activity: Leaf Spot of Sugar Beets (Cercospora beticola; Bayer code CERCBE): The following tables present the activity of 5-fluorocytosine (Table I) or a 5-fluorocytosine derivative (Table II) when evaluated in these experiments. The effectiveness of 5-fluorocytosine or 5-fluorocytosine derivative in controlling disease was determined by assessing the severity of disease on treated plants, then converting the severity to percent control based on the level of disease on untreated, inoculated plants. • In each case of Tables I and II the rating scale is as follows: […]

[6] = test system: Leptosphaeria nodorum; Bayer code LEPTNO; anamorph: Stagonospora nodorum; assay: Glume Blotch of Wheat fungicidal activity; conditions: 100 ppm
Procedure: as §1, §2
Wheat plants (variety Yuma) were grown from seed in a greenhouse in 50% mineral soil/50% soil-less Metro mix until the first leaf was fully emerged, with 7-10 seedlings per pot. […]
as §3

[7] = test system: Cercospora beticola; Bayer code CERCBE; assay: Leaf Spot of Sugar Beets fungicidal activity; conditions: 100 ppm, 1DP (1-day protectant)
[8] = 24 h, SEPTTR, wheat, 100 ppm, One-Day Protectant (1DP), % disease control rating, read-out: SEPTTR 100 PPM 1DP
[9] = 72 h, SEPTTR, wheat, 100 ppm, Three-Day Curative (3DC), % disease control rating, read-out: SEPTTR 100 PPM 3DC
[10] = 24 h, read-out: SEPTTR 100 PPM 1DP
[11] = 72 h, read-out: SEPTTR 100 PPM 3DC

| SMILES | pest or weed control at 100 ppm [1, 8] [%] | pest or weed control at 100 ppm [1, 9] [%] | further results |
| --- | --- | --- | --- |
| CC(C)(C)C(=O)Nc1nc(O)ncc1F [Cmpd 4] | 76 to 100 | 76 to 100 |  |
| CCCCCOC(=O)Nc1nc(O)ncc1F [Cmpd 19] | 0 to 25 | 0 to 25 |  |
| COc1ccc(C(=O)Nc2nc(O)ncc2F)cc1 [Cmpd 20] | 0 to 25 | 0 to 25 |  |
| COc1cccc(C(=O)Nc2nc(O)ncc2F)c1 [Cmpd 21] | 0 to 25 | 0 to 25 |  |
| Cc1ccc(OC(=O)Nc2nc(O)ncc2F)cc1 [Cmpd 15] |  |  | pest or weed control at 100 ppm [1, 10]: 76 to 100%; pest or weed control at 100 ppm [1, 11]: 51 to 75% |
| O=C(Nc1nc(O)ncc1F)c1ccccc1Cl [Cmpd 24] | 26 to 50 | 26 to 50 |  |
| CCCCCCCCCCCC(=O)Nc1nc(O)ncc1F [Cmpd 9] | 76 to 100 | 26 to 50 |  |
| CNc1nc(O)ncc1F [Cmpd 18] | 0 to 25 | 51 to 75 |  |
| CCCC(=O)Nc1nc(O)ncc1F [Cmpd 11] | 76 to 100 | 76 to 100 |  |
| CC(C)C(=O)Nc1nc(O)ncc1F [Cmpd 13] | 76 to 100 | 76 to 100 |  |
| CCONc1nc(O)ncc1F [Cmpd 17] | 26 to 50 | 76 to 100 |  |
| CCC(=O)Nc1nc(O)ncc1F [Cmpd 3] | 76 to 100 | 76 to 100 |  |
| COc1ccccc1C(=O)Nc1nc(O)ncc1F [Cmpd 22] | 0 to 25 | 0 to 25 |  |
| O=C(Nc1nc(O)ncc1F)c1ccc(Cl)cc1 [Cmpd 6] | 76 to 100 | 26 to 50 |  |
| CCCCCC(=O)Nc1nc(O)ncc1F [Cmpd 8] | 76 to 100 | 76 to 100 |  |
| CC(=O)Nc1nc(O)ncc1F [Cmpd 2] | 76 to 100 | 76 to 100 |  |
| Nc1nc(=O)[nH]cc1F [5-FC, 5-Fluorocytosine] |  |  | % Disease Control of 5-FC [2]: A (76-100); % Disease Control of 5-FC ([3]; 100 ppm, 3DC (3-day curative)): B (51-75); % Disease Control of 5-FC ([3]; 200 ppm, 1DP (1-day protectant)): B (51-75); % Disease Control of 5-FC ([4]; 1DP (1-day protectant)): A (76-100); % Disease Control of 5-FC ([4]; 3DC (3-day curative)): A (76-100); % Disease Control of 5-FC [5]: C (26-50); % Disease Control of 5-FC ([1]; SEPTTR, wheat, 100 ppm, 3DC (3-day curative)): A (76-100); % Disease Control of 5-FC ([1]; SEPTTR, wheat, 200 ppm, 1DP (1-day protectant)): A (76-100); % Disease Control of 5-FC ([6]; 1DP (1-day protectant)): D (0-25); % Disease Control of 5-FC ([6]; 3DC (3-day curative)): C (26-50); % Disease Control of 5-FC [7]: A (76-100) |
| O=C(Nc1nc(O)ncc1F)Oc1ccccc1 [Cmpd 16] |  |  | pest or weed control at 100 ppm [1, 10]: 76 to 100%; pest or weed control at 100 ppm [1, 11]: 76 to 100% |
| Cc1ccc(C(=O)Nc2nc(O)ncc2F)cc1 [Cmpd 5] | 76 to 100 | 51 to 75 |  |
| CC(C)COC(=O)Nc1nc(O)ncc1F [Cmpd 7] | 51 to 75 | 51 to 75 |  |
| CCC(CC)C(=O)Nc1nc(O)ncc1F [Cmpd 10] | 26 to 50 | 0 to 25 |  |
| O=C(Nc1nc(O)ncc1F)c1ccccc1 [Cmpd 12] | 76 to 100 | 76 to 100 |  |
| COC(=O)Nc1nc(O)ncc1F [Cmpd 14] | 26 to 50 | 0 to 25 |  |
| O=C(Nc1nc(O)ncc1F)c1cccc(Br)c1 [Cmpd 23] | 26 to 50 | 0 to 25 |  |
